Measurements taken from patent US20220142958A1, “MEDICINAL COMPOSITION HAVING EXCELLENT STABILITY” (EA Pharma Co., Ltd., priority 2019, published 2022).

Legend:
[1] = Example 1A: residual ratio of Compound A1 in buffer solutions stored at 5° C.; format: physicochemical; conditions: for Residual ratio (%): 0.1 mg/mL
Description: Compound A1 was dissolved in each of the buffer solutions so that a concentration was 0.1 mg/mL. Each of these solutions was dispensed into a glass vial and stored at 5° C. After the storage, a residual ratio was calculated according to a test method described below.
(§1) Test method: In the solution after the storage, the residual ratio was analyzed according to a normal method using a liquid chromatography apparatus Prominence (manufactured by Shimadzu Corporation) and an ultraviolet absorptiometer (measurement wavelength: 254 nm, Prominence (manufactured by Shimadzu Corporation)). At this time, SUMIPAX ODS (3 mm×150 mm, 5 μm, manufactured by SCAS) was used as a column.
The residual ratio (%) of Compound A1 during each storage period at 5° C. was calculated as follows.
Residual ratio (%) of Compound A1 during each storage period=peak area of Compound A1 in sample solution/sum of peak area of sample solution×100

[2] = Example 3: storage stability of formulations at 5° C., 15° C. and 25° C.; format: physicochemical
Description: Compound A1 weighed so as to have the composition shown in Table 7 below and each of the buffer solutions were dissolved in water for injection to obtain a uniform solution. These solutions were filled in glass ampoules and sealed. Each pH in Example 3 was measured during each storage period using a pH meter HM-30R (manufactured by DKK-TOA CORPORATION).
The residual ratio of Compound A1 and the production of each of the decomposition products at 5° C., 15° C., and 25° C. were evaluated according to a test method described below.
Test method: In the solution after the storage, the residual ratio was analyzed according to a normal method using a liquid chromatography apparatus (ACQUITY UPLC H-Class; measurement wavelength: 210 nm). At this time, XSELECT CSH C18 (2.1 mm×100 mm, 3.5 μm, manufactured by Waters Corporation) was used as a column.
Calculation for obtaining the residual ratio (%) of Compound A1 and each of the decomposition products (%) during each storage period is as follows.
Residual ratio (%) of Compound A1=peak area of Compound A1 in sample solution/sum of peak area of sample solution×100
Each of decomposition products (%)=peak area of each of decomposition products in sample solution/sum of peak area of sample solution×100

male beagles = assay: Emetogenicity of Compound A1 in dogs; format: in vivo, dog; conditions: for Number of vomiting cases/Number of administration: Intravenous
Description: A crossover trial was conducted with male beagles (Nosan Beagle, 14 to 87-month-old, weight: 10.2 kg to 15.8 kg). The Compound A1 solutions used in Reference Example 2 were given at 0.3, 1 and 10 mg/kg by bolus administration (0.5 mL/kg, 1 mL/sec) to 3 to 6 dogs per dose to confirm the manifestation of vomiting immediately after the administration. Administration was conducted once or twice a week with an interval of 2 days or longer. Administration was conducted prior to feeding. Symptoms prior to, immediately after, and 15 and 30 minutes after the administration were observed.

[3] = system: healthy Japanese male adults; assay: Phase I clinical trial (P1), single intravenous dose; format: in vivo, human
Description: Thirty-two healthy Japanese male adults were given a single intravenous dose of the test drug (Compound A1) at 0.01 mg, 0.1 mg, 1.0 mg or 2.5 mg in a fasted state to study the pharmacokinetics, pharmacodynamics and safety by a double-blind test using a placebo as a control. Here, the trial drug was administered by diluting a required dose taken from the Compound A1 vial formulation prepared as follows with sterilized water for injection, and filling a syringe with the resultant in accordance with the dose to be administered.
A vial formulation encapsulating 100 mg of Compound A1 in terms of a dehydrate, and sodium chloride, disodium hydrogen phosphate dodecahydrate, and sodium dihydrogen phosphate dihydrate as additives in 10 ml of sterilized water for injection

[4] = Example 4A: residual ratio and reaction rate constant after storage at 60° C.; format: physicochemical; conditions: for Reaction rate constant at 60° C. / Residual ratio (%): 0.1 mg/mL
Description: Compound A1 was dissolved in each of the buffer solutions shown in Table 10 so that a concentration was 0.1 mg/mL. Each of these solutions was dispensed into a glass vial and stored at 60° C. After the storage, a residual ratio was calculated according to a test method described below.
as §1
The calculation for obtaining the residual ratio (%) of Compound A1 during each storage period is as follows.
Residual ratio (%) of Compound A1 during each storage period=peak area of Compound A1 in sample solution/peak area of Compound A1 in standard solution×100
Here, “Compound A1 in standard solution” refers to a solution obtained by dissolving Compound A1 in each of the buffer solutions shown in Table 10 so that a concentration was 0.1 mg/mL, and then storing the solution at 5° C. It was clear from the results of Example 1 that the solution of Compound A1 was stable when being stored at 5° C., and thus, the solution was used as the standard solution.
The reaction rate constant at 60° C. was calculated using the obtained residual ratio.

[5] = single intravenous doses of 0.01, 0.1, 1.0 and 2.5 mg

Cc1c(Cl)cc(S(=O)(=O)[O-])cc1NC(=O)NC[C@H](N)C(=O)O.[Na+] [Compound A1, sodium 3-{[(2S)-2-amino-2-carboxyethyl]carbamoylamino}-5-chloro-4-methylbenzenesulfonate]
Residual ratio (%) ([1]; pH 1.1, 5° C., 24 hours): 100% | Residual ratio (%) ([1]; pH 1.1, 5° C., 113 hours): 100% | Residual ratio (%) ([1]; pH 1.1, 5° C., 161 hours): 100% | Residual ratio (%) ([1]; pH 2.0, 5° C., 24 hours): 100% | Residual ratio (%) ([1]; pH 2.0, 5° C., 113 hours): 100% | Residual ratio (%) ([1]; pH 2.0, 5° C., 161 hours): 100% | Residual ratio (%) ([1]; pH 3.0, 5° C., 24 hours): 100% | Residual ratio (%) ([1]; pH 3.0, 5° C., 113 hours): 100% | Residual ratio (%) ([1]; pH 3.0, 5° C., 161 hours): 100% | Residual ratio (%) ([1]; pH 4.0, 5° C., 24 hours): 100% | Residual ratio (%) ([1]; pH 4.0, 5° C., 113 hours): 100% | Residual ratio (%) ([1]; pH 4.0, 5° C., 161 hours): 100% | Residual ratio (%) ([1]; pH 5.0, 5° C., 24 hours): 100% | Residual ratio (%) ([1]; pH 5.0, 5° C., 113 hours): 100% | Residual ratio (%) ([1]; pH 5.0, 5° C., 161 hours): 100% | Residual ratio (%) ([1]; pH 6.0, 5° C., 24 hours): 100% | Residual ratio (%) ([1]; pH 6.0, 5° C., 113 hours): 100% | Residual ratio (%) ([1]; pH 6.0, 5° C., 161 hours): 100% | Residual ratio (%) ([1]; pH 7.0, 5° C., 24 hours): 100% | Residual ratio (%) ([1]; pH 7.0, 5° C., 113 hours): 100% | Residual ratio (%) ([1]; pH 7.0, 5° C., 161 hours): 100% | stability of the formulation ([1]; pH of 1.1 to 7.0, 5° C.): stable | storage stability ([2]; formulations in the pH range of 6.4 to 6.9, 5° C., for 30 months): excellent storage stability | storage stability ([2]; formulations in the pH range of 6.4 to 6.9, 15° C., for 12 months): excellent storage stability | storage stability ([2]; formulations in the pH range of 6.4 to 6.9, 25° C. (60% RH), for 6 months): excellent storage stability | Number of vomiting cases/Number of administration (male beagles; 0.3 mg/kg): 0/3 | Number of vomiting cases/Number of administration (male beagles; 1 mg/kg): 0/3 | Number of vomiting cases/Number of administration (male beagles; 10 mg/kg): 1/6 | therapeutic margin with respect to vomiting (dog C0 vs human C0) (male beagles; dog 1 mg/kg vs human 0.1 mg/man): ≥ 430 times | serum iPTH concentration compared to that before the administration ([3]; 0.01 mg and higher dose groups): decreased | safety (side effects) ([3]; 1.0 mg and higher dose groups): non-severe and mild side effects such as vomiting | duration of decreased serum iPTH concentration ([3]; relation to given dose): extended with the increase in the given dose | form excreted into the urine ([3]; single intravenous doses): mostly as unchanged substances | main elimination pathway of the unchanged substance ([3]; single intravenous doses): renal excretion | elimination from the plasma [3, 5]: rapidly eliminated | form present in the plasma [3, 5]: generally unchanged substances | Reaction rate constant at 60° C. ([4]; pH 1.1): 6.3 × 10^−4 | Residual ratio (%) ([4]; pH 1.1, 60° C., 24 hours): 97.8% | Residual ratio (%) ([4]; pH 1.1, 60° C., 113 hours): 92.7% | Residual ratio (%) ([4]; pH 1.1, 60° C., 161 hours): 90.2% | Reaction rate constant at 60° C. ([4]; pH 2.0): 6.5 × 10^−4 | Residual ratio (%) ([4]; pH 2.0, 60° C., 24 hours): 98.1% | Residual ratio (%) ([4]; pH 2.0, 60° C., 113 hours): 92.4% | Residual ratio (%) ([4]; pH 2.0, 60° C., 161 hours): 90.1% | Reaction rate constant at 60° C. ([4]; pH 3.0): 7.5 × 10^−4 | Residual ratio (%) ([4]; pH 3.0, 60° C., 24 hours): 98.3% | Residual ratio (%) ([4]; pH 3.0, 60° C., 113 hours): 91.5% | Residual ratio (%) ([4]; pH 3.0, 60° C., 161 hours): 88.9% | Reaction rate constant at 60° C. ([4]; pH 4.0): 7.6 × 10^−4 | Residual ratio (%) ([4]; pH 4.0, 60° C., 24 hours): 98.1% | Residual ratio (%) ([4]; pH 4.0, 60° C., 113 hours): 91.5% | Residual ratio (%) ([4]; pH 4.0, 60° C., 161 hours): 88.5% | Reaction rate constant at 60° C. ([4]; pH 5.0): 7.9 × 10^−4 | Residual ratio (%) ([4]; pH 5.0, 60° C., 24 hours): 98.0% | Residual ratio (%) ([4]; pH 5.0, 60° C., 113 hours): 91.3% | Residual ratio (%) ([4]; pH 5.0, 60° C., 161 hours): 88.0% | Reaction rate constant at 60° C. ([4]; pH 6.0): 7.8 × 10^−4 | Residual ratio (%) ([4]; pH 6.0, 60° C., 24 hours): 98.1% | Residual ratio (%) ([4]; pH 6.0, 60° C., 113 hours): 91.5% | Residual ratio (%) ([4]; pH 6.0, 60° C., 161 hours): 88.3% | Reaction rate constant at 60° C. ([4]; pH 7.0): 8.2 × 10^−4 | Residual ratio (%) ([4]; pH 7.0, 60° C., 24 hours): 98.2% | Residual ratio (%) ([4]; pH 7.0, 60° C., 113 hours): 91.0% | Residual ratio (%) ([4]; pH 7.0, 60° C., 161 hours): 87.8% | change of reaction rate constant at 60° C. when the pH of the formulation was changed ([4]; pH 1.1 to 7.0): not significantly changed
